Laboratory results as given in US10654822B2, “Composition and rodenticidal bait comprising flocoumafen, and process for controlling target rodent pests” (priority 2015, dated 2020).
Where two headings read alike, the source gives them in different places.

Format: in vivo, Sprague-Dawley rats
Details: mean of three rats, liver
Description: The configurational stereoisomers of flocoumafen are separated by high-pressure liquid chromatography using a LUX® Cellulose-4 chiral column (00F-4490-B0, Phenomenex, Le Pecq, France) as stationary phase and a mixture formed from acetonitrile (A) and water comprising 0.1% by volume of formic acid (B), with an A/B volume ratio of 92/8, as mobile phase with a flow rate of the liquid mobile phase in the chromatography column of 0.25 mL/minute. 1 μL of extract comprising flocoumafen at a concentration of 1 μg/mL of acetonitrile is injected. Detection is performed by tandem mass spectrometry (MS/MS) in negative electrospray ionization (ESI) mode. The temperature of the nebulizer gas is 350° C. and its flow rate is 8 L/minute. The pressure of the nebulizer gas is brought to 2700 hPa. In particular, the MRM (“Multiple Reaction Monitoring”) transitions m/z 541.1→382.1 and m/z 541.1→161, corresponding to the flocoumafen signal, are analysed.
Extraction of Flocoumafen from the Liver of Rats Tube-Fed with Flocoumafen
About 0.525 g (±0.025 g) of rat liver is weighed out accurately and placed in a 50 mL polypropylene tube. 10 mL of acetone are added and the suspension is homogenized using an Ultra-Turrax® homogenizer/disperser for a time of about 30 seconds. The homogenizer/disperser shaft is rinsed with hot water and then twice with 20 mL of acetone in a polypropylene tube. The homogenate is centrifuged for 5 minutes at a centrifugation speed of 3000 rpm (revolutions per minute). The supernatant is collected and transferred into a test tube. The sample is subjected to evaporation under a stream of nitrogen (N2) at a temperature of 40° C. so as to form a dry extract.
1 mL of acetonitrile is added to the tube containing the dry extract so as to dissolve it. The acetonitrile solution is washed twice successively with 1 mL of hexane. The lipid-free extract is dried under a stream of nitrogen (N2) at a temperature of 40° C. and is then taken up in 0.5 mL of methanol and dissolved by vortex stirring. 0.5 mL of ultra-pure (Milli-Q) water is then added. The sample is vortex-homogenized.
1 mL of dichloromethane (CH2Ct2), then 1 mL of methanol (CH3OH), then 1 mL of ultra-pure (Milli-Q) water are passed through an Oasis HLB 1 cc cartridge (WAT094225, Waters). The lipid-free liver extract (1 mL MeOH/Milli-Q H2O) containing flocoumafen is then loaded onto the top of the cartridge beforehand. The liver extract penetrates through the cartridge by gravity on contact with the solid phase of the cartridge. 1 mL of washing solution formed from methanol (CH3OH) and ultra-pure water (H2O) in a 90/10 volume proportion is loaded onto the top of the cartridge. The cartridge is dried by suction under vacuum connected to the bottom of the cartridge. 1 mL of eluting solution formed from dichloromethane (CH2Cl2) and methanol (CH3OH) in a 90/10 volume proportion is then loaded onto the top of the cartridge and an eluate comprising flocoumafen is collected at the bottom of the cartridge. The solvent of the eluate is evaporated off under a stream of nitrogen (N2) at a temperature of 40° C. The sample is taken up in 0.5 mL of acetonitrile (NC—CH3) and the acetonitrile solution containing flocoumafen is filtered through a 0.2 μm porosity filter.
Hepatic Persistence of the Configurational Stereoisomers (E1, E2, E3 and E4) of Flocoumafen in Rats
A solution comprising flocoumafen in a mixture of vegetable oil and 5% of DMSO so that the amount of flocoumafen ingested by each rat is about 2.3 mg per kilogram of rat is administered orally (per os) to 8-week-old male and female laboratory rats (Sprague-Dawley rats, Charles River, Saint-Germain-sur-l'Arbresle, France) weighing between 180 and 200 g. The tube-fed rats are treated daily by subcutaneous administration of a dose of vitamin K1 at a rate of 1 U per rat so as to keep the rats alive throughout the experiment. […]

[1] = female rats, D+1 after oral tube-feeding of flocoumafen about 2.3 mg/kg (mixture of 4 stereoisomers)
[2] = female rats, D+3 after oral tube-feeding of flocoumafen about 2.3 mg/kg (mixture of 4 stereoisomers)
[3] = female rats, D+7 after oral tube-feeding of flocoumafen about 2.3 mg/kg (mixture of 4 stereoisomers)
[4] = male rats, D+1 after oral tube-feeding of flocoumafen about 2.3 mg/kg (mixture of 4 stereoisomers)
[5] = male rats, D+3 after oral tube-feeding of flocoumafen about 2.3 mg/kg (mixture of 4 stereoisomers)
[6] = male rats, D+7 after oral tube-feeding of flocoumafen about 2.3 mg/kg (mixture of 4 stereoisomers)

| Structure (SMILES) | Hepatic concentration [1] | Hepatic concentration [2] | Hepatic concentration [3] | Hepatic concentration [4] | Hepatic concentration [5] | Hepatic concentration [6] |
| --- | --- | --- | --- | --- | --- | --- |
| O=c1oc2ccccc2c(O)c1C1CC(c2ccc(OCc3ccc(C(F)(F)F)cc3)cc2)Cc2ccccc21 (single isomer, unassigned) [Enantiomer E1, flocoumafen] | 4585 ng/g | 2692 ng/g | 1196 ng/g | 196 ng/g | 47 ng/g | 0 ng/g |
| O=c1oc2ccccc2c(O)c1C1CC(c2ccc(OCc3ccc(C(F)(F)F)cc3)cc2)Cc2ccccc21 (single isomer, unassigned) [Enantiomer E2, flocoumafen] | 5396 ng/g | 2522 ng/g | 469 ng/g | 3904 ng/g | 1962 ng/g | 319 ng/g |
| O=c1oc2ccccc2c(O)c1C1CC(c2ccc(OCc3ccc(C(F)(F)F)cc3)cc2)Cc2ccccc21 (single isomer, unassigned) [Enantiomer E3, flocoumafen] | 5478 ng/g | 2734 ng/g | 1228 ng/g | 3301 ng/g | 1862 ng/g | 647 ng/g |
| O=c1oc2ccccc2c(O)c1C1CC(c2ccc(OCc3ccc(C(F)(F)F)cc3)cc2)Cc2ccccc21 (single isomer, unassigned) [Enantiomer E4, flocoumafen] | 10342 ng/g | 7765 ng/g | 5054 ng/g | 8143 ng/g | 9906 ng/g | 2623 ng/g |
